This is an account of results in a melting point compilation (Tetko et al.; mined from patent text by program, amines drawn as free bases though some values may be those of a salt).

`COC(=O)c1cc(C(=O)Nc2nccs2)c2cc(Cc3ccc(F)cc3)cnc2c1O`: the melting point was in the range of 258 to 259 °C.

Regarding `CCC(=O)OC1C(CO)OC(n2cnc3c(N)ncnc32)C1OC(=O)CC` (configuration not stated), the melting point was in the range of 172 to 173 °C.

On to `COc1nc(Nc2ccc(Cl)cc2[N+](=O)[O-])nc(OC)n1`, for which the melting point was 206 to 208 °C.

For the compound `CCN(CC)CCOc1ccc2c(c1)C(=O)c1ccc(OCCN(CC)CC)cc1C2=O`, the melting point fell in the range of 169 to 170 °C.

Consider `O=c1cc(-c2cc3ccccc3cc2O)oc2ccccc12`, for which the melting point was 202 °C.

The compound `COc1cc(OC)nc(C(O)(C(=O)NS(C)(=O)=O)c2ccccc2)n1` (configuration not stated) returned a melting point of 94 to 96 °C.

In turn, `CCCCN(CCCC)C(=O)Nc1ccc(C)cc1C` returned a melting point of 48 to 50 °C.

Take `Cc1cc(OCc2sc(-c3ccc(C(F)(F)F)cc3)nc2C)ccc1/C=C/C(=O)O`: the melting point fell in the range of 200 to 203 °C.

In turn, `CS(=O)(=O)Nc1cnn(CCCCN2CCN(c3ncccn3)CC2)c1` came in with a melting point of 132 °C.

`CCS(=O)(=O)Nc1cc(-n2nc(C(F)F)n(C)c2=S)c(F)cc1C(N)=S`: the melting point worked out at 183 °C.

Regarding `Cc1cc(NSc2ccccc2[N+](=O)[O-])ccc1Oc1ncc(Cl)cn1`, the melting point is 74 to 85 °C.

Consider `COc1ccc2cc3c(=O)n(C)cc(C(=O)NCCN(C)C)c3nc2c1Cl`, for which the melting point fell in the range of 209 to 212 °C.

`CN(C)Cc1cccc(-c2cc(C(N)=O)ccc2C(N)=O)c1` registered a melting point of 162 to 165 °C.

In turn, `CC(=O)SCCC(=O)N1C(C(=O)O)CC(=O)N1c1ccccc1` (configuration not stated) yielded a melting point of 144 to 146 °C.

As for `O=C(O)COCc1cc2cc(Cl)ccc2n1S(=O)(=O)c1ccccc1`, the melting point fell in the range of 140 to 142 °C.

The compound `CC(C)(C)OC(=O)NCCCCC(=O)NCCC(=O)OCc1ccccc1` registered a melting point of 69 to 70 °C.

On to `CNC(=O)c1ccccc1C(O)c1ccc(F)cc1` (configuration not stated), for which the melting point lay in the range of 133 to 134 °C.

On to `CCCC(CCC)Nc1cc(C(=O)O)ccc1N1C(=O)CCC1(CO)CO`, for which the melting point was in the range of 227 to 229 °C.

The compound `COc1cc(/C=C/c2ccc(F)cc2)cc(OC)c1` showed a melting point of 46 to 48 °C.

Consider `O=C(NCC1CC1)c1cc2nccnc2c(Cl)c1NC(=O)c1cc(C(F)(F)F)nn1-c1ncccc1Cl`, for which the melting point was in the range of 180 to 183 °C.

For the compound `CCCNC(=O)CCC(C)C1CCC2C3C(OC(C)=O)CC4CC(OO)(OO)CCC4(C)C3CC(OC(C)=O)C12C` (configuration not stated), the melting point fell in the range of 120 to 129 °C.

In turn, `CCCCn1nc2c(N)nc3ncccc3c2c1CC(C)(C)O` had a melting point of 232 to 235 °C.

`CC(C)(C)OC(=O)NC1CCC2(CC1)CSC1=C(O2)c2ccccc2C(=O)C1=O` (configuration not stated) yielded a melting point of 224 to 225 °C.

`COc1ccc(OC)c(N2Cc3[nH]c(=O)[nH]c(=O)c3C2)c1` gave a melting point of 308 to 310 °C.

Compound `CCOCCNC(=O)n1sc(OCC)nc1=O` registered a melting point below 50 °C.

The compound `COc1ccc(NC(=O)/C=C/c2c(OC)cc(OC)cc2OC)cc1` had a melting point of 198 to 200 °C.

Regarding `COc1ccc(C(=O)Nc2cccnc2)c2c1oc1ccccc12`, the melting point came out at 226 °C.

The compound `NC(=O)C(c1ccccc1)(c1ccccc1)c1ccc(N)cn1` yielded a melting point of 215 to 220 °C.

`COC(=O)C1=C(C)NC(N)=C(C(=O)OC(C)C)C1c1cccc([N+](=O)[O-])c1` (configuration not stated) had a melting point of 167 °C.

As to `CC(C)C(NC(=O)N(C)Cc1ccccn1)C(=O)NC(Cc1ccccc1)C(O)C(O)C(Cc1ccccc1)NC(=O)C(NC(=O)N(C)Cc1ccccn1)C(C)C` (configuration not stated), the melting point was in the range of 159 to 162 °C.

As to `CCC(=O)Nc1c(C(=O)c2cc(Cl)ccc2NC(C)=O)[nH]c2cc(Cl)ccc12`, the melting point fell in the range of 264 to 266 °C.

`CCOC(=O)c1ccc(-c2ccc(OCCO)c(-c3ccc(N4CCCC4)c(C(C)(C)C)c3)c2)cc1` registered a melting point of 193 °C.

As for `COC(=O)c1nc(NC(C)=O)ccc1Oc1nc(OC)cc(OC)n1`, the melting point lay within 80 to 85 °C.

Compound `CC(=O)ON=C(c1ccccc1)c1cc(C(C)(C)C)c(O)c(C(C)(C)C)c1` gave a melting point of 136 to 137 °C.

The compound `Cc1nc(-c2ccc(OCC(F)(F)C(F)F)cc2)sc1C(=O)O` showed a melting point of 167 to 168 °C.

`Cc1sc2[nH]c(=O)c(=O)[nH]c2c1C` yielded a melting point above 300 °C.

In turn, `Cc1cc(-c2nc3cccnn3c2-c2ccnc(NC(=O)NCCS(C)(=O)=O)c2)ccc1F` had a melting point of 204 to 205 °C.

`CC(C)(C)OC(=O)N1C[C@@H]2OCc3cnnn3[C@H]2C1` came in with a melting point of 155 to 157 °C.

Regarding `COc1ccc(C(CC#N)CC#N)cc1O`, the melting point lay within 90 to 92 °C.

Compound `COc1cc(OC)nc(O[C@H]2CCCC[C@H]2C(=O)O)n1` (relative stereo) had a melting point of 151 to 152 °C.

In the case of `Cc1nc2cc3c(cc2s1)C1(CO3)C(=O)N(CC2CCOCC2)c2ccccc21` (configuration not stated), the melting point was 186 to 187 °C.

Take `CCCCCCCCCCCC(=O)OC1C(C)C(c2ccccc2)N(O)C(c2ccccc2)C1C` (configuration not stated): the melting point lay in the range of 108 to 112 °C.

Turning to `CC(=O)OC(c1ccc(C(F)(F)F)cc1[N+](=O)[O-])c1cnoc1C1CC1` (configuration not stated), the melting point was 82 °C.

As to `COc1ccccc1N1CCN(CCc2c(C)c3ccc(OC)c(OC)c3oc2=O)CC1`, the melting point fell in the range of 146 to 148 °C.

For the compound `O=C(CSc1ccc(Cl)cc1)c1ccccc1`, the melting point is 65 to 66 °C.

In the case of `COc1cc(OC)nc(Oc2ccnc3cc(Cl)ccc23)n1`, the melting point was 119 to 120 °C.

Consider `O=C1NC(=O)c2c(-c3ccccc3[N+](=O)[O-])ccc(-c3ccccc3)c21`, for which the melting point was 224 to 226 °C.

`O=Cc1cc2c3ccccc3ccc2c2occc12` displayed a melting point of 145 to 150 °C.

`N#Cc1ccccc1Cn1cc(-c2ccnc(Cl)c2)n(-c2ccc(F)cc2)c1=O` returned a melting point of 109 °C.

`COc1cccc(CNc2ncnc3c2sc2nc(N(C)C)c4c(c23)C(C)(C)CC4)c1OC`: the melting point is 91.9 to 93.6 °C.

`O=C1Nc2cccc(I)c2/C1=C/c1ccc[nH]1` had a melting point of 256 to 258 °C.

`COC1c2ccccc2CSc2ccc(Br)cc21` (configuration not stated) showed a melting point of 68 to 71 °C.

For the compound `NS(=O)(=O)c1cncc([N+](=O)[O-])c1`, the melting point is 168 °C.

As to `CCC(CC)C(c1ccnn1-c1ccccc1)N(C)S(=O)(=O)c1ccc(Br)s1` (configuration not stated), the melting point was 116 to 118 °C.

`COc1ccc(-c2cc(=Nc3c(C)cc(C)cc3C)n(C)c(C)n2)cc1OC` had a melting point of 163 to 168 °C.

For `CNS(=O)(=O)c1csc(C(=O)OC)c1`, the melting point came out at 142 °C.

In the case of `C[C@H](c1ccccc1)N1C(=O)N(C(=O)OC(C)(C)C)[C@@H]2C(=O)OC[C@@H]21`, the melting point fell in the range of 177 to 178 °C.

`CN1C(NCc2ccccc2)=Nc2ccncc2S1(=O)=O`: the melting point was in the range of 142 to 146 °C.

Compound `CC[C@H](C)CNC(=O)[C@@H](C[C@H](O)[C@H](CC1CCCCC1)NC(=O)[C@H](Cc1cscn1)NC(=O)[C@@H](CC(=O)N1CCOCC1)Cc1ccccc1)C(C)(C)O` came in with a melting point of 80 to 82 °C.

Consider `COc1ccc(-c2[nH]c(C(N)(C(F)(F)F)C(F)(F)F)nc2-c2ccc(F)cc2)cc1`, for which the melting point fell in the range of 123 to 124 °C.

`CNc1ccsc1C(=O)CS(C)=O` (configuration not stated) gave a melting point of 125 to 127 °C.

Turning to `O=C(O)C1=Cc2cc(Cl)cc(CO)c2OC1C(F)(F)F` (configuration not stated), the melting point was in the range of 175 to 179 °C.

Usually melting point stands for the temperature of the solid-liquid transition.
